Test results published in the supplement of paper PMC10627819.

Columns and labels:
S. aureus Newman = test: fitness (endpoint OD595 vs no drug) (fraction); higher = more growth
Outline: (§1)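 With the first reading as background, OD595 was measured every 30 min for 14 h in 384-well plates kept at 37 °C and inoculated at OD595 0.01. TSB, LB Lennox or CY was the medium. Fitness is the optical density at the transition into stationary phase divided by the robust mean of no-drug control wells, with a cap of 1.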

S. pneumoniae D39V = test: as above
Outline: as §1
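Further: OD595 on entry to stationary phase over no-drug wells; at most 1.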

O=C(N[C@H](CO)[C@H](O)c1ccc([N+](=O)[O-])cc1)C(Cl)Cl [Chloramphenicol] + CC1(C)S[C@@H]2[C@H](NC(=O)Cc3ccccc3)C(=O)N2[C@H]1C(=O)O [Penicillin G]
fitness, S. aureus Newman
Conditions	first compound 0.75 µg/mL	first compound 1.5 µg/mL	first compound 3 µg/mL
partner 0.0195 µg/mL	0.744	0.494	0.187
partner 0.039 µg/mL	0.742	0.475	0.173
partner 0.078 µg/mL	0.72	0.477	0.181

O=C(N[C@H](CO)[C@H](O)c1ccc([N+](=O)[O-])cc1)C(Cl)Cl [Chloramphenicol] + CC1=C(C(=O)O)N2C(=O)[C@@H](NC(=O)[C@H](N)c3ccccc3)[C@H]2SC1 [Cephalexin]
fitness, S. aureus Newman
Conditions	partner 0.25 µg/mL	partner 0.5 µg/mL	partner 1 µg/mL
first compound 0.75 µg/mL	0.792	0.891	0.908
first compound 3 µg/mL	–	0.312	–

O=C(N[C@H](CO)[C@H](O)c1ccc([N+](=O)[O-])cc1)C(Cl)Cl [Chloramphenicol] + CO/N=C(\C(=O)N[C@@H]1C(=O)N2C(C(=O)O)=C(COC(N)=O)CS[C@H]12)c1ccco1 [Cefuroxime]
fitness, S. aureus Newman, one replicate
Conditions	first compound 0.75 µg/mL	first compound 1.5 µg/mL	first compound 3 µg/mL
partner 0.04875 µg/mL	0.808	0.377	–
partner 0.0975 µg/mL	0.697	0.312	0.0949
partner 0.195 µg/mL	0.64	0.206	0.065

O=C(N[C@H](CO)[C@H](O)c1ccc([N+](=O)[O-])cc1)C(Cl)Cl [Chloramphenicol] + O=C(O)[C@H]1/C(=C/CO)O[C@@H]2CC(=O)N21 [Clavulanic acid]
fitness, S. aureus Newman, one replicate
Conditions	first compound 0.75 µg/mL	first compound 1.5 µg/mL	first compound 3 µg/mL
partner 0.03125 µg/mL	0.891	0.7	0.0864
partner 0.0625 µg/mL	0.889	0.708	–
partner 0.125 µg/mL	0.85	0.494	0.11

CC[C@H]1OC(=O)[C@H](C)[C@@H](O[C@H]2C[C@@](C)(OC)[C@@H](O)[C@H](C)O2)[C@H](C)[C@@H](O[C@@H]2O[C@H](C)C[C@H](N(C)C)[C@H]2O)[C@](C)(OC)C[C@@H](C)C(=O)[C@H](C)[C@@H](O)[C@]1(C)O [Clarithromycin] + CC1=C(C(=O)O)N2C(=O)[C@@H](NC(=O)[C@H](N)c3ccccc3)[C@H]2SC1 [Cephalexin]
fitness, S. pneumoniae D39V, one replicate
Conditions	first compound 0.007812 µg/mL	first compound 0.01562 µg/mL	first compound 0.03125 µg/mL	first compound 0.0625 µg/mL	first compound 0.125 µg/mL	first compound 0.25 µg/mL
partner 0.125 µg/mL	–	–	–	0.701	0.33	0.138
partner 0.25 µg/mL	–	–	–	0.723	0.381	0.174
partner 0.5 µg/mL	–	–	–	0.777	0.4	0.163
partner 1 µg/mL	0.314	0.417	0.236	–	–	–
partner 2 µg/mL	0.028	0.0414	0.0229	–	–	–
partner 4 µg/mL	0.0398	0.0811	0.0306	–	–	–

fitness, S. pneumoniae D39V
Conditions	first compound 0.07 µg/mL	first compound 0.14 µg/mL	first compound 0.28 µg/mL
partner 1 µg/mL	0.0665	0.0755	0.0377
partner 2 µg/mL	0.0399	0.0839	0.0276
partner 4 µg/mL	0.0364	0.0743	0.0463

CC[C@H]1OC(=O)[C@H](C)[C@@H](O[C@H]2C[C@@](C)(OC)[C@@H](O)[C@H](C)O2)[C@H](C)[C@@H](O[C@@H]2O[C@H](C)C[C@H](N(C)C)[C@H]2O)[C@](C)(OC)C[C@@H](C)C(=O)[C@H](C)[C@@H](O)[C@]1(C)O [Clarithromycin] + CN(C)[C@@H]1C(O)=C(C(N)=O)C(=O)[C@@]2(O)C(O)=C3C(=O)c4c(O)ccc(Cl)c4[C@@](C)(O)[C@H]3C[C@@H]12 [Chlortetracycline]
fitness, S. pneumoniae D39V, one replicate
Conditions	first compound 0.007812 µg/mL	first compound 0.01562 µg/mL	first compound 0.03125 µg/mL
partner 0.012 µg/mL	0.693	0.688	0.542
partner 0.024 µg/mL	0.844	0.654	0.455
partner 0.048 µg/mL	0.693	0.519	0.244

fitness, S. pneumoniae D39V
Conditions	first compound 0.0625 µg/mL	first compound 0.07 µg/mL	first compound 0.125 µg/mL	first compound 0.14 µg/mL	first compound 0.25 µg/mL	first compound 0.28 µg/mL
partner 0.012 µg/mL	–	0.0902	–	0.14	–	0.093
partner 0.024 µg/mL	–	0.121	–	0.122	–	0.0945
partner 0.048 µg/mL	–	0.123	–	0.132	–	0.118
partner 0.375 µg/mL	0.0643	–	0.0595	–	0.0683	–
partner 0.75 µg/mL	0.0438	–	0.0485	–	0.0679	–
partner 1.5 µg/mL	0.0386	–	0.0516	–	0.0374	–

CC[C@H]1OC(=O)[C@H](C)[C@@H](O[C@H]2C[C@@](C)(OC)[C@@H](O)[C@H](C)O2)[C@H](C)[C@@H](O[C@@H]2O[C@H](C)C[C@H](N(C)C)[C@H]2O)[C@](C)(OC)C[C@@H](C)C(=O)[C@H](C)[C@@H](O)[C@]1(C)O [Clarithromycin] + CO/N=C(\C(=O)N[C@@H]1C(=O)N2C(C(=O)O)=C(COC(C)=O)CS[C@H]12)c1csc(N)n1 [Cefotaxime]
fitness, S. pneumoniae D39V, one replicate
Conditions	first compound 0.007812 µg/mL	first compound 0.01562 µg/mL	first compound 0.03125 µg/mL
partner 0.0018 µg/mL	0.903	0.874	0.652
partner 0.0035 µg/mL	0.922	0.868	0.662
partner 0.007 µg/mL	0.704	0.698	0.596

fitness, S. pneumoniae D39V
Conditions	first compound 0.0625 µg/mL	first compound 0.07 µg/mL	first compound 0.125 µg/mL	first compound 0.14 µg/mL	first compound 0.25 µg/mL	first compound 0.28 µg/mL
partner 0.0018 µg/mL	0.643	0.155	0.36	0.11	0.134	0.0567
partner 0.0035 µg/mL	0.626	0.149	0.354	0.106	0.136	0.0647
partner 0.007 µg/mL	0.532	0.103	0.296	0.108	0.0943	0.0726

CC[C@H]1OC(=O)[C@H](C)[C@@H](O[C@H]2C[C@@](C)(OC)[C@@H](O)[C@H](C)O2)[C@H](C)[C@@H](O[C@@H]2O[C@H](C)C[C@H](N(C)C)[C@H]2O)[C@](C)(OC)C[C@@H](C)C(=O)[C@H](C)[C@@H](O)[C@]1(C)O [Clarithromycin] + CO/N=C(\C(=O)N[C@@H]1C(=O)N2C(C(=O)[O-])=C(C[N+]3(C)CCCC3)CS[C@H]12)c1csc(N)n1 [Cefepime]
fitness, S. pneumoniae D39V, one replicate
Conditions	first compound 0.007812 µg/mL	first compound 0.01562 µg/mL	first compound 0.03125 µg/mL
partner 0.0078 µg/mL	0.887	0.866	0.673
partner 0.0155 µg/mL	0.884	0.834	0.635
partner 0.031 µg/mL	0.456	0.491	0.456

fitness, S. pneumoniae D39V
Conditions	first compound 0.0625 µg/mL	first compound 0.07 µg/mL	first compound 0.125 µg/mL	first compound 0.14 µg/mL	first compound 0.25 µg/mL	first compound 0.28 µg/mL
partner 0.007 µg/mL	0.67	–	0.43	–	0.165	–
partner 0.0078 µg/mL	–	0.187	–	0.0821	–	0.103
partner 0.014 µg/mL	0.675	–	0.458	–	0.181	–
partner 0.0155 µg/mL	–	0.168	–	0.105	–	0.108
partner 0.028 µg/mL	0.611	–	0.358	–	0.136	–
partner 0.031 µg/mL	–	0.0769	–	0.102	–	0.091

CC[C@H]1OC(=O)[C@H](C)[C@@H](O[C@H]2C[C@@](C)(OC)[C@@H](O)[C@H](C)O2)[C@H](C)[C@@H](O[C@@H]2O[C@H](C)C[C@H](N(C)C)[C@H]2O)[C@](C)(OC)C[C@@H](C)C(=O)[C@H](C)[C@@H](O)[C@]1(C)O [Clarithromycin] + CO[C@@]12[C@H](COC(N)=O)C3=C(C(=O)C(C)=C(N)C3=O)N1C[C@@H]1N[C@@H]12 [Mitomycin C]
fitness, S. pneumoniae D39V, one replicate
Conditions	first compound 0.007812 µg/mL	first compound 0.01562 µg/mL	first compound 0.03125 µg/mL
partner 0.002 µg/mL	0.798	0.763	0.596
partner 0.004 µg/mL	0.727	0.692	0.539
partner 0.008 µg/mL	0.546	0.558	0.379

fitness, S. pneumoniae D39V
Conditions	first compound 0.0625 µg/mL	first compound 0.07 µg/mL	first compound 0.125 µg/mL	first compound 0.14 µg/mL	first compound 0.25 µg/mL	first compound 0.28 µg/mL
partner 0.001075 µg/mL	0.654	–	0.345	–	0.084	–
partner 0.002 µg/mL	–	0.139	–	0.0901	–	0.0614
partner 0.00215 µg/mL	0.642	–	0.285	–	0.108	–
partner 0.004 µg/mL	–	0.142	–	0.0707	–	0.0988
partner 0.0043 µg/mL	0.526	–	0.245	–	0.0525	–
partner 0.008 µg/mL	–	0.0708	–	0.039	–	0.0676

CCC[C@@H]1C[C@@H](C(=O)N[C@@H]([C@H]2O[C@H](SC)[C@H](O)[C@@H](O)[C@H]2O)[C@H](C)Cl)N(C)C1 [Clindamycin] + CC1(C)S[C@@H]2[C@H](NC(=O)Cc3ccccc3)C(=O)N2[C@H]1C(=O)O [Penicillin G]
fitness, S. aureus Newman
Conditions	first compound 0.0312 µg/mL	first compound 0.0625 µg/mL	first compound 0.125 µg/mL
partner 0.0195 µg/mL	0.639	0.416	0.0886
partner 0.039 µg/mL	0.708	–	0.0624
partner 0.078 µg/mL	–	–	0.0543

CCC[C@@H]1C[C@@H](C(=O)N[C@@H]([C@H]2O[C@H](SC)[C@H](O)[C@@H](O)[C@H]2O)[C@H](C)Cl)N(C)C1 [Clindamycin] + CC[C@H]1OC(=O)[C@H](C)[C@@H](O[C@H]2C[C@@](C)(OC)[C@@H](O)[C@H](C)O2)[C@H](C)[C@@H](O[C@@H]2O[C@H](C)C[C@H](N(C)C)[C@H]2O)[C@](C)(OC)C[C@@H](C)C(=O)[C@H](C)[C@@H](O)[C@]1(C)O [Clarithromycin]
fitness, S. pneumoniae D39V
Conditions	first compound 0.0125 µg/mL	first compound 0.015 µg/mL	first compound 0.025 µg/mL	first compound 0.03 µg/mL	first compound 0.05 µg/mL	first compound 0.06 µg/mL
partner 0.0625 µg/mL	0.563	–	0.422	–	0.164	–
partner 0.07 µg/mL	–	0.136	–	0.11	–	0.0799
partner 0.125 µg/mL	0.409	–	0.338	–	0.109	–
partner 0.14 µg/mL	–	0.087	–	0.081	–	0.115
partner 0.25 µg/mL	0.181	–	0.121	–	0.0631	–
partner 0.28 µg/mL	–	0.0757	–	0.0789	–	0.0946

fitness, S. pneumoniae D39V, one replicate
Conditions	first compound 0.015 µg/mL	first compound 0.03 µg/mL	first compound 0.06 µg/mL
partner 0.007812 µg/mL	0.728	0.578	0.283
partner 0.01562 µg/mL	0.746	0.637	0.371
partner 0.03125 µg/mL	0.635	0.557	0.175
